The values that follow come from patent US9248171B2, “Immunogenic peptides and their use in transplantation” (IMCYSE SA, priority 2008, dated 2016).

Assay [1] relates to Bm12 mouse skin allograft. In words: Rejection of Bm12 skin graft (MHC class II mismatch) in pre-immunized C57B1/6 mice. The assay is classed as in vivo. Conditions: 3 subcutaneous administrations in CFA/IFA at fortnight intervals. From the text:
The Bm12 mice constitute a variant of the C57B1/6 mice in which a spontaneous mutation has occurred in the I-Ab locus. This mutation consists of 3 amino acid substitutions in a stretch of 5 amino acids and thereby generates a limited MHC class II mismatch between Bm12 mice and C57B1/6 wild type mice. This mismatch is nevertheless sufficient as to elicit rejection of Bm12 mouse skin allograft.
The 3 substituted amino acids are Ile67Phe, Arg70Gln and Thr71Lys located in the third hypervariable region of the beta chain. A synthetic peptide encompassing these residues was made and has the sequence: PEFLEQKRA (SEQ ID. NO: 10). This peptide was modified according to the invention by incorporation of a thioreductase consensus sequence, resulting in the exemplary immunogenic peptide CGHCPEFLEQKRA (SEQ ID. NO: 11).
Cytotoxic CD4+ regulatory T cells towards the modified peptide of SEQ ID. NO: 11 are elicited in C57B1/6 mice by 3 subcutaneous administration of the peptide in CFA/IFA given at fortnight intervals. Such mice are then grafted with the skin of Bm12 mice.

Assay [2] has as its system male C57B1/6 skin allograft. The experiment in a line: Skin graft rejection, male skin onto pre-immunized syngeneic female mice (naive mice). It is filed as in vivo, C57B1/6 mice. Conditions: for Rejection rate Day 10 / Rejection rate Day 20: 3 SC injections, rejected mice/mice, rejection = more than 50% of graft surface necrotic; for Effect of pre-immunization on skin graft rejection (in words): pre-immunization in either CFA/IFA or alum. As to the method: One of the most studied models of graft rejection is skin grafting between syngeneic animals of different sex. Thus, the […] contains a number of genes, in particular the Dby gene, which encodes a minor histocompatibility antigen that elicits strong CD4+ T cell activation and chronic rejection in females. […] T cell epitopes from the Dby antigen have been described and selected as shown in Example 1 (peptide of SEQ ID. NO: 5). A synthetic peptide of SEQ ID. NO: 6 was prepared. Groups of 3 female C57B1/6 mice (H-2b haplotype) were made for testing the capacity of modified peptides of SEQ ID NO:1 to elicit tolerance to the skin allograft. Where applicable, pre-immunization was carried out by 3 subcutaneous injections of peptides containing either the natural epitope or its modified counterpart. Injections were made at fortnight intervals in either CFA/IFA or alum. Groups were therefore as follows: • Group 1: skin allograft without preimmunization • Group 2: skin autograft • Group 3: preimmunization with peptide of SEQ ID. NO: 6 emulsified in CFA (first immunization) and IFA for second and third immunization) • Group 4: same as in Group 3, but with alum as an adjuvant • Group 5: same as in Group 3, but using the natural peptide of SEQ ID. NO: 5 All these mice, except for Group 2 mice, received a male C57B1/6 skin allograft of 1 cm2, either directly (Group 1) or 2 weeks after the last immunization for Groups 3, 4 and 5. Group 2 mice received and autograft. Rejection rate was evaluated at day 10 and 20 and judged effective if more than 50% of the graft surface was necrotic.

Assay [3] relates to heterotopic male heart transplant. The experiment in a line: Heterotopic male heart transplant in pre-immunized syngeneic female mice. It is filed as in vivo, C57B1/6 mice. The conditions noted are these: 3 subcutaneous injections at fortnight intervals in CFA/IFA. The source says:
To establish the proof of concept that cytolytic regulatory CD4+ T cells of the present invention can prevent rejection of a vascularized organ, the model of heterotopic heart transplantation is used. This method is well known in the art, as described for instance in Kadner A et al, European Journal of Cardio-thoracic Surgery (2000) 17: 474-481. Briefly, the method consists in abdominal implantation of the heart in a non-working setting, namely the heart is vascularized but not supporting the circulation. This allows long-term follow-up of the graft and multiple biopsies without killing the experimental animal.
Hearts from C57BL/6 males are grafted using such technique in the abdomen of syngeneic females. The rejection process, which is mediated by expression of H-Y-derived antigens in both MHC class I and MHC class II determinants, is mainly due to the circulation of recipient's specific CD4+ T cells that are activated by recognition of alloantigen-derived peptides by graft endothelial cells. Such CD4+ T cells produce IL-2 and IFN-gamma, driving more inflammation and providing help for the maturation of specific CD8+ T cells.
C57B1/6 female mice are pre-immunized before receiving the male allograft with peptides of either SEQ ID NO:5, SEQ ID NO:6 or a sham peptide. This is carried out by 3 subcutaneous injections of peptides made at fortnight intervals in either CFA/IFA. Thereafter, all mice receive a heterotopic male heart transplant.

The test system of assay [4] is APC (antigen-presenting cells). The experiment in a line: Apoptosis of peptide-loaded APC (Annexin V binding) induced by CD4+ T cells from immunized mice (Dby peptides). It is filed as cell-based, C57B1/6 mice. The conditions noted are these: 10 μg peptide SC in CFA then IFA; APC loaded with SEQ ID. NO: 5 or SEQ ID. NO: 6. As to the method:
Groups of C57BL/6 female mice were immunized with 10 μg of peptide of SEQ ID. NO: 6 emulsified in CFA (complete Freund's adjuvant) for the first SC (subcutaneous) injection and in IFA (incomplete Freund's adjuvant) for the two subsequent immunizations. The spleen of such mice was retrieved 10 days after the last immunization and CD4+ T cells were obtained by cell sorting using magnetic beads.
These CD4+ T cells were assayed in vitro for their capacity to induce apoptosis of APC (antigen-presenting cells). Thus, spleen cells of naïve C57B1/6 mice were deprived of CD4+ T cells by magnetic bead sorting and used as APC. Such APC were loaded with peptides of either SEQ ID. NO: 5 or of SEQ ID. NO: 6 by incubation for 16 h at room temperature. The cells were then washed to eliminate residual free peptides.

Marks after values point to notes of the source that are not given here.

In the case of “CGHCPEFLEQKRA (redox motif + mutated version of I-Ab locus) [SEQ ID. NO: 11]”, in assay [1], the “Rejection of Bm12 skin graft after preimmunization” value is on record as “reject the B12m graft unless they are preimmunized with the peptide of SEQ ID. NO: 11”.
On to “CHGCFNSNRANSS (redox motif + T cell epitope of Dby antigen) [SEQ ID. NO: 6]”, for which, in assay [2] (pre-immunization in CFA/IFA), the “Rejection rate Day 10” value is 0/3 and the “Rejection rate Day 20” value is 0/3. Also, in assay [2] (pre-immunization in alum), the “Rejection rate Day 10” value was 0/3 and the “Rejection rate Day 20” value is given as 0/3. Moreover, in assay [2], the “Effect of pre-immunization on skin graft rejection (in words)” value is given as “fully prevents graft rejection”. In addition, in assay [3], the “Graft findings (cellular infiltration, endothelitis, chronic vascular lesions)” value is “absence of cellular infiltration, of signs of endothelitis and of chronic vascular lesions”; the “Outcome of transplanted heart after pre-immunization” value is listed as “tolerate the graft”. The “APC apoptosis (surface binding of Annexin V) induced by CD4+ T cells of mice immunized with the peptide” value in assay [4] is listed as “induced into apoptosis”.
Consider “FNSNRANSS (T cell epitope of Dby antigen) [SEQ ID. NO: 5, reference compound]”, for which, in assay [2] (pre-immunization in CFA/IFA), the “Rejection rate Day 10” value is 2/3 and the “Rejection rate Day 20” value is recorded as 2/3**. The “Effect of pre-immunization on skin graft rejection (in words)” value in assay [2] is reported as “accelerates the rejection”. In assay [3], the “Outcome of transplanted heart after pre-immunization” value was “show rejection of the transplanted heart”. In addition, the “APC apoptosis (surface binding of Annexin V) induced by CD4+ T cells of mice immunized with the peptide” value in assay [4] was “did not induce any significant degree of APC apoptosis”.
